Laboratory results as given in PubChem BioAssay AID334 (DTP/NCI, 2004).
Values joined by “and” are separate entries in the source; they are usually repeats but may differ in a detail not shown here. Equal values may be shown once. Toxic doses and inconclusive results are not listed.

Test system: CD2F1 mice, intracerebral P388 leukemia, median survival T/C%
Assay: NCI In Vivo Anticancer Drug Screen. Data for tumor model P388 Leukemia (intracerebral) in CD2F1 (CDF1) mice
Conditions: endpoint: median survival time, higher = longer survival
Protocol: The antitumor activity of compounds was measured in mice bearing transplantable tumors. Survival or tumor size were measured and the results are expressed as the measurement made in the treated group (T) divided by the measurement made in the vehicle treated control group (C). The tumor model used in this assay is P388 Leukemia (intracerebral) in CD2F1 (CDF1) mice

[1] = dose: 12.5 mg/kg/injection, schedule: Q01DX009 (ip), vehicle: saline
[2] = dose: 8.0 mg/kg/injection, schedule: Q01DX009 (ip), vehicle: Klucel (hydroxypropylcellulose) (HPC)
[3] = dose: 16.0 mg/kg/injection, schedule: Q01DX009 (ip), vehicle: Klucel (hydroxypropylcellulose) (HPC)
[4] = dose: 16.0 mg/kg/injection, schedule: Q01DX009 (ip), vehicle: saline with Tween-80
[5] = dose: 32.0 mg/kg/injection, schedule: Q01DX009 (ip), vehicle: Klucel (hydroxypropylcellulose) (HPC)
[6] = dose: 32.0 mg/kg/injection, schedule: Q01DX009 (ip), vehicle: saline with Tween-80
[7] = dose: 64.0 mg/kg/injection, schedule: Q01DX009 (ip), vehicle: Klucel (hydroxypropylcellulose) (HPC)
[8] = dose: 64.0 mg/kg/injection, schedule: Q01DX009 (ip), vehicle: saline with Tween-80
[9] = dose: 128.0 mg/kg/injection, schedule: Q01DX009 (ip), vehicle: Klucel (hydroxypropylcellulose) (HPC)
[10] = dose: 256.0 mg/kg/injection, schedule: Q01DX009 (ip), vehicle: Klucel (hydroxypropylcellulose) (HPC)
[11] = dose: 512.0 mg/kg/injection, schedule: Q01DX009 (ip), vehicle: Klucel (hydroxypropylcellulose) (HPC)
[12] = dose: 512.0 mg/kg/injection, schedule: Q01DX009 (ip), vehicle: saline with Tween-80

## C[n+]1c2ccccc2nc2c(N)cc(N)cc21
dose: 4.0 mg/kg/injection, schedule: Q01DX005 (ip), vehicle: suspension in saline
  T/C: 114 % of control and 97 % of control
dose: 8.0 mg/kg/injection, schedule: Q01DX005 (ip), vehicle: suspension in saline
  T/C: 94 % of control and 103 % of control
dose: 16.0 mg/kg/injection, schedule: Q01DX005 (ip), vehicle: suspension in saline
  T/C: 104 % of control and 106 % of control
dose: 32.0 mg/kg/injection, schedule: Q01DX005 (ip), vehicle: suspension in saline
  T/C: 102 % of control and 108 % of control

## F
dose: 16.0 mg/kg/injection, schedule: Q01DX005 (ip), vehicle: saline
  T/C: 97 % of control and 101 % of control
dose: 32.0 mg/kg/injection, schedule: Q01DX005 (ip), vehicle: saline
  T/C: 98 % of control and 99 % of control

## CN(Cc1cnc2nc(N)nc(N)c2n1)c1ccc(C(=O)N[C@@H](CCC(=O)O)C(=O)O)cc1
dose: 0.38 mg/kg/injection, schedule: Q01DX009 (ip), vehicle: olive oil, sesame oil, peanut oil
  T/C: 110 % of control
dose: 0.38 mg/kg/injection, schedule: Q01DX009 (ip), vehicle: saline
  T/C: 110 % of control
dose: 0.75 mg/kg/injection, schedule: Q01DX009 (ip), vehicle: sodium bicarbonate
  T/C: 112 % of control
dose: 0.75 mg/kg/injection, schedule: Q01DX009 (ip), vehicle: suspension in saline
  T/C: 123 % of control and 106 % of control
dose: 1.2 mg/kg/injection, schedule: Q04DX003 (ip), vehicle: saline
  T/C: 105 % of control
dose: 1.5 mg/kg/injection, schedule: Q01DX009 (ip), vehicle: sodium bicarbonate
  T/C: 112 % of control
dose: 1.5 mg/kg/injection, schedule: Q01DX009 (ip), vehicle: suspension in saline
  T/C: 96 % of control and 100 % of control
dose: 2.3 mg/kg/injection, schedule: Q01DX009 (ip), vehicle: sodium bicarbonate
  T/C: 112 % of control
dose: 2.3 mg/kg/injection, schedule: Q01DX009 (ip), vehicle: suspension in saline
  T/C: 113 % of control and 103 % of control
dose: 2.3 mg/kg/injection, schedule: Q04DX003 (ip), vehicle: saline
  T/C: 100 % of control
dose: 3.4 mg/kg/injection, schedule: Q01DX009 (ip), vehicle: sodium bicarbonate
  T/C: 116 % of control
dose: 3.4 mg/kg/injection, schedule: Q01DX009 (ip), vehicle: suspension in saline
  T/C: 120 % of control and 122 % of control
dose: 4.6 mg/kg/injection, schedule: Q04DX003 (ip), vehicle: saline
  T/C: 110 % of control
dose: 9.2 mg/kg/injection, schedule: Q04DX003 (ip), vehicle: saline
  T/C: 100 % of control
dose: 18.4 mg/kg/injection, schedule: Q04DX003 (ip), vehicle: saline
  T/C: 115 % of control
dose: 36.8 mg/kg/injection, schedule: Q04DX003 (ip), vehicle: saline
  T/C: 95 % of control

## CCCCCCCC/C=C/CCCCCCCC(=O)Nc1ccn(C2OC(CO)C(O)C2O)c(=O)n1 (stereo not drawn)
[1]
  T/C: 155 % of control
dose: 25.0 mg/kg/injection, schedule: Q01DX009 (ip), vehicle: saline
  T/C: 197 % of control
dose: 50.0 mg/kg/injection, schedule: Q01DX009 (ip), vehicle: saline
  T/C: 262 % of control

## C#C[C@]1(O)CC[C@H]2[C@@H]3CCc4cc(O)ccc4[C@H]3CC[C@@]21C
[2]
  T/C: 90 % of control and 100 % of control
[3]
  T/C: 94 % of control and 104 % of control
[4]
  T/C: 95 % of control
[5]
  T/C: 100 % of control and 101 % of control
[6]
  T/C: 100 % of control
[7]
  T/C: 94 % of control and 100 % of control
[8]
  T/C: 95 % of control
[9]
  T/C: 99 % of control and 102 % of control
[10]
  T/C: 95 % of control and 100 % of control
[11]
  T/C: 86 % of control and 99 % of control
[12]
  T/C: 103 % of control

## CNc1nc(N(C)C)nc(N(C)C)n1
dose: 8.0 mg/kg/injection, schedule: Q01DX009 (ip), vehicle: saline
  T/C: 99 % of control
[1]
  T/C: 101 % of control and 111 % of control
dose: 16.0 mg/kg/injection, schedule: Q01DX009 (ip), vehicle: saline
  T/C: 103 % of control
dose: 32.0 mg/kg/injection, schedule: Q01DX009 (ip), vehicle: saline
  T/C: 106 % of control
dose: 64.0 mg/kg/injection, schedule: Q01DX009 (ip), vehicle: saline
  T/C: 118 % of control

## CC(=O)N(C)c1ccc(Nc2cc(C)[nH]c3ccc4ncnc4c23)cc1
dose: 10.0 mg/kg/injection, schedule: Q01DX005 (ip), vehicle: saline
  T/C: 107 % of control
dose: 20.0 mg/kg/injection, schedule: Q01DX005 (ip), vehicle: saline
  T/C: 106 % of control
dose: 40.0 mg/kg/injection, schedule: Q01DX005 (ip), vehicle: saline
  T/C: 104 % of control

## COc1cc([C@@H]2c3cc4c(cc3[C@@H](OC3OC5CO[C@@H](c6cccs6)OC5C(O)C3O)[C@H]3COC(=O)[C@H]23)OCO4)cc(OC)c1O (stereo partly drawn)
dose: 0.25 mg/kg/injection, schedule: Q01DX009 (ip), vehicle: saline
  T/C: 108 % of control
dose: 0.5 mg/kg/injection, schedule: Q01DX009 (ip), vehicle: saline
  T/C: 116 % of control
dose: 2.0 mg/kg/injection, schedule: Q01DX009 (ip), vehicle: saline
  T/C: 152 % of control
dose: 4.0 mg/kg/injection, schedule: Q01DX009 (ip), vehicle: saline
  T/C: 119 % of control

## CC(C)(C)N1CC1CNC(=O)C(=O)NCC1CN1C(C)(C)C (stereo not drawn)
dose: 3.0 mg/kg/injection, schedule: Q01DX009 (ip), vehicle: saline with Tween-80
  T/C: 101 % of control
dose: 3.12 mg/kg/injection, schedule: Q01DX009 (ip), vehicle: saline with Tween-80
  T/C: 104 % of control and 107 % of control
dose: 6.0 mg/kg/injection, schedule: Q01DX009 (ip), vehicle: saline with Tween-80
  T/C: 121 % of control
dose: 6.25 mg/kg/injection, schedule: Q01DX009 (ip), vehicle: saline with Tween-80
  T/C: 117 % of control and 111 % of control
dose: 12.5 mg/kg/injection, schedule: Q01DX009 (ip), vehicle: saline with Tween-80
  T/C: 177 % of control
dose: 25.0 mg/kg/injection, schedule: Q01DX009 (ip), vehicle: saline with Tween-80
  T/C: 105 % of control

## CCC(=O)O[C@H]1CC[C@H]2[C@@H]3CC[C@H]4CC(=O)[C@H](C)C[C@]4(C)[C@H]3CC[C@]12C
[2]
  T/C: 121 % of control and 105 % of control
dose: 8.0 mg/kg/injection, schedule: Q01DX009 (ip), vehicle: saline with Tween-80
  T/C: 100 % of control and 106 % of control
[3]
  T/C: 94 % of control and 103 % of control
[4]
  T/C: 100 % of control and 106 % of control
[5]
  T/C: 123 % of control and 98 % of control
[6]
  T/C: 97 % of control and 100 % of control
[7]
  T/C: 123 % of control and 100 % of control
[8]
  T/C: 116 % of control and 91 % of control
[9]
  T/C: 120 % of control and 102 % of control
dose: 128.0 mg/kg/injection, schedule: Q01DX009 (ip), vehicle: saline with Tween-80
  T/C: 95 % of control and 106 % of control
[10]
  T/C: 114 % of control and 94 % of control
dose: 256.0 mg/kg/injection, schedule: Q01DX009 (ip), vehicle: saline with Tween-80
  T/C: 100 % of control and 109 % of control
[11]
  T/C: 111 % of control
[12]
  T/C: 91 % of control and 106 % of control

## N=[N+]=CC(=O)CCC(NC(=O)C(CCC(=O)C=[N+]=N)NC(=O)CCC(N)C(=O)O)C(=O)O (stereo not drawn)
dose: 0.05 mg/kg/injection, schedule: Q01DX005 (ip), vehicle: Klucel (hydroxypropylcellulose) (HPC)
  T/C: 106 % of control
dose: 0.1 mg/kg/injection, schedule: Q01DX005 (ip), vehicle: Klucel (hydroxypropylcellulose) (HPC)
  T/C: 96 % of control and 104 % of control
dose: 0.2 mg/kg/injection, schedule: Q01DX005 (ip), vehicle: Klucel (hydroxypropylcellulose) (HPC)
  T/C: 100 % of control and 103 % of control
dose: 0.4 mg/kg/injection, schedule: Q01DX005 (ip), vehicle: Klucel (hydroxypropylcellulose) (HPC)
  T/C: 100 % of control and 105 % of control

## CN(C)c1nc(N(C)C)nc(N(C)C)n1
dose: 100.0 mg/kg/injection, schedule: Q01DX005 (ip), vehicle: saline with Tween-80
  T/C: 104 % of control
dose: 100.0 mg/kg/injection, schedule: Q01DX005 (ip), vehicle: suspension in saline
  T/C: 100 % of control
dose: 200.0 mg/kg/injection, schedule: Q01DX005 (ip), vehicle: saline with Tween-80
  T/C: 111 % of control
dose: 200.0 mg/kg/injection, schedule: Q01DX005 (ip), vehicle: suspension in saline
  T/C: 107 % of control
dose: 400.0 mg/kg/injection, schedule: Q01DX005 (ip), vehicle: saline with Tween-80
  T/C: 111 % of control
dose: 400.0 mg/kg/injection, schedule: Q01DX005 (ip), vehicle: suspension in saline
  T/C: 89 % of control
